In US20110256068A1, “CONTRAST MEDIA COMPOSITIONS” (priority 2009, published 2011):

Experiment: Viscosity at 20° C. by U-tube time of fall technique
Type: physicochemical
Details: 350 mgl/ml solution, 10 mM Tris, EDTA 0.1 mg/ml
Procedure: The obtained iodine concentration was 356 mgl/ml. The viscosity was determined to 28.7 mPas at 20° C. The osmolality was determined to 295 mOsm/kg.
a) Preparation of a 350 mgl/ml solution of IIIa containing 10 mM Tris and EDTA (0.1 mg/ml)
To a calibrated flask with a volume of 99.655 ml was added 71.174 g IIIa (water content 2.03%), 153 mg Trizma preset crystals (pH 7.3) and 10 mg EDTA disodium dihydrate followed by 67.330 g Milli-Q water. The mixture was brought to clear solution by intermittent agitation, gentle heating and sonication.
The clear solution with pH=6.95 was filtered through a Millipore Sterivex 0.22 um filter.
b) Preparation of a 350 mgl/ml solution of iopamidol containing 10 mM Tris and EDTA (0.1 mg/ml)
To a calibrated flask with a volume of 99.655 ml was added 72.429 g iopamidol (water content 1.7%), 157 mg Trizma preset crystals (pH 7.3) and 10 mg EDTA disodium dihydrate followed by 66.309 g Milli-Q water. The mixture was brought to clear solution by intermittent agitation, gentle heating and sonication.
The clear solution with pH=6.85 was filtered through a Millipore Sterivex 0.22 um filter.
c) The two solutions from a) and b) were mixed in different proportions according to Table 1. After thorough mixing, the viscosity was determined at 20° C. using conventional U-tube time of fall technique.

SMILES	Viscosity at 20° C. (100% IIIa / 0% iopamidol by volume) [mPas]	Viscosity at 20° C. (0% IIIa / 100% iopamidol by volume) [mPas]
O=CN(CC(O)CN(C=O)c1c(I)c(C(=O)NCC(O)CO)c(I)c(C(=O)NCC(O)CO)c1I)c1c(I)c(C(=O)NCC(O)CO)c(I)c(C(=O)NCC(O)CO)c1I (centres unmarked) [IIIa, 5,5′-(2-hydroxypropane-1,3-diyl)bis(formylazanediyl)bis(N^1,N^3-bis(2,3-dihydroxypropyl)-2,4,6-triiodoisophthalamide)]	42.9	
C[C@H](O)C(=O)Nc1c(I)c(C(=O)NC(CO)CO)c(I)c(C(=O)NC(CO)CO)c1I [iopamidol]		15.8
